Results reported in US6127342A, “Method for preventing or treating a lung disease caused by active oxygen and free radical injury” (Teijin Limited, priority 1991, dated 2000).

How the values were obtained:
Assay type in all cases: in vivo
[1] = test system: liver ischemia-reperfusion model using rats; assay: Serum AST, ALT and LDH after 1 hour of reperfusion; conditions: rat; 50 mg/kg i.v.
Method: (§1) Male Wister rats weighing 250-300 g were fasted with free access to water 24 hours before the experiment. Seventy-two rats were divided into three groups of 24 animals each, i.e., the control group, the GSH administration group and the γ-GCE-administration group. Each rat was anesthetized by intraperitoneal administration of 40 mg/0.8 ml/kg of sodium pentobarbital, and the femoral vein was cannulated. In the GSH group and the γ-GCE group, 50 mg/kg of GSH or γ-GCE respectively were administered intravenously. Physiological saline was then infused for volume replacement in each group, as a continuous intravenous infusion at a rate of 0.8 ml/hr with an injection pump throughout the experiment. Thirty minutes after starting injection of physiological saline, the abdomon was opened by a midline incision and the liver hilus was exposed. According to the method described by Hasselgren, et al. in J. Surg. Res., Vol. 34, pp. 409-414, 1984, all vessels to the left and median lobes of the liver, more specifically, hepatic artery, portal vein and the bile duct, were clamped to produce an ischemic state for 2 hours. Since blood vessels to the remaining parts of the liver were not occluded by this method, poral stasis could be avoided which was of special relevance for circulation stability in rats. Thereafter, occlusion of all vessels was released by removing the clamp to allow reperfusion for 1 hour. The abdominal walls were closed during ischemia and reperfusion.
Using 18 rats in each group, the livers of 6 animals from each group were removed before ischemia, after 2 hours of ischemia, and after 1 hour of reperfusion, respectively. A portion of the liver from each animal was rapidly frozen in liquid nitrogen and used for measurement of glutathione,adenine nucleotides and lipid peroxide. From the remaining portion of the liver, mitochondria was immediately extracted according to the method described by Hogeboom and Schneider in the J. Biol. Chem., Vol. 172, p. 619, 1948. In other experiments, immediately after starting reperfusion, blood from the hepatic vein was collected using 6 rats from each group. These blood samples were then used to measure leaked adenine nucleotides. In addition, after 1 hour of said reperfusion, blood samples were also drawn, which were then used to measure the activity of the leaked liver cell enzymes.
(§2) Evaluation of ischemia-reperfusion injury was performed by measuring liver tissue (1) mitochondrial function, (2) glutathione concentration, (3) adenine nucleotides concentration, and (4) lipid peroxide concentration, as well as liver tissue derived (5) adenine nucleotides concentration in the hepatic vein immediately after starting reperfusion, and (6) liver cell enzyme activities in the blood after 1 hour of reperfusion. More specifically, the mitochondrial function in (1) was measured according to the method described by Chance, et al. in Adv. Enzymol., Vol. 17, p. 65, 1956. In addition, the quantitative determination of glutathione in (2) was performed using the same method as Experiment 1 on supernatant obtained by adding 10 vol/g of tissue weight of 2.5% (w/v) sulfosalicylic acid dihydrate aqueous solution to the liver tissue followed by homogenization and centrifugation. In addition, the quantitative determination of adenine nucleotides in (3) was performed by neutralizing the perchloric acid extract of the liver tissue with potassium hydroxide followed by removal of the precipitate and applying to an ion exchange HPLC column according to the method described by Sugino, et al. in J. Chromatogr., Vol. 361, pp. 427-431, 1986. In addition, the measurement of lipid peroxide in (4) was performed according to the thiobarbiturate method described by Ohkawa, et al. in Anal. Biochem., Vol. 95, p. 351, 1979. […]

[2] = test system: coronary ischemia-reperfusion model using dogs; assay: Arrhythmia during coronary ischemia and reperfusion (electrocardiogram); conditions: dog; for Number of Ventricular Premature Beats, 1 Hour of Reperfusion / Total Duration of Ventricular Tachycardia, 1 Hour of Reperfusion / effect on total duration of ventricular tachycardia during reperfusion / occurrence of arrhythmia (ventricular premature beats) during reperfusion: 10 mg/kg i.v. just before reperfusion; for Number of Ventricular Premature Beats, 2 Hours of Ischemia / Total Duration of Ventricular Tachycardia, 2 Hours of Ischemia: during 2 h ischemia, before the drug was given
Method: (§3) After anesthetizing 52 adult mongrel dogs of either sex weighing ca. 10 kg by intraperitoneal administration of 50 mg/kg of sodium pentobarbital, breathing tubes were immediately intubated endotracheally and artificial ventilation was continued using a Harvard ventilator. Electrocardiogram electrodes were attached, and monitoring and recording were continued throughout the experiment. Following insertion of cannulas in the right femoral vein and right femoral artery, the cannulas were used for continuous intravenous drip of physiological saline to replenish water or administration of the test preparation, and monitoring of arterial blood pressure, respectively. After performing left thoracotomy in the fourth or fifth intercostal space, the pericardium was torn to expose the heart. Ischemia was induced by ligating the left anterior descending coronary artery immediately distal to the first diagonal branch, while reperfusion was performed by subsequently removing that ligation.
(§4) The animals were divided into four groups. Group 1 (n=9) was subjected to ischemia for 2 hours, group 2 (n=17) was subjected to ischemia for 2 hours followed by reperfusion for 1 hour, group 3 (n=10) was subjected to ischemia for 2 hours followed by reperfusion for 1 hour plus intravenous injection of 10 mg/kg of γ-GCE just before reperfusion, and group 4 (n=16) was subjected to 2 hours of ischemia followed by 1 hour of reperfusion plus intravenous injection of 10 mg/kg of reduced glutathione (GSH, control drug) just before reperfusion.
Evaluation of arrhythmia was performed by analyzing the electrocardiogram to determine the presence of arrhythmia, or in other words, the number of ventricular premature beats, as well as the total duration of ventricular tachycardia, which was defined as more than three successive ventricular premature beats.

[3] = test system: liver ischemia-reperfusion model using rats; assay: Adenine nucleotides in hepatic vein immediately after starting reperfusion; conditions: rat; 50 mg/kg i.v.
Method: as §1, with “reperfusion. […]” for “reperfusion.”
as §2, with “Enzymol., Vol. 17, p. 65, 1956.” left out, “1986.” for “1986. In addition, the measurement of lipid peroxide in (4) was performed according to the thiobarbiturate method described by Ohkawa, et al. in Anal. Biochem., Vol. 95, p. 351, 1979.”

[4] = test system: cardiac muscle mitochondria; assay: Glutathione content of cardiac muscle mitochondria after coronary ischemia-reperfusion; conditions: dog; for effect on reduction of mitochondrial glutathione during reperfusion / Glutathione content of cardiac muscle mitochondria, GSH + GSSG, normal area / Glutathione content of cardiac muscle mitochondria, GSH, normal area / Glutathione content of cardiac muscle mitochondria, GSSG, normal area / Glutathione content of cardiac muscle mitochondria, GSH + GSSG, ischemic or reperfused area / Glutathione content of cardiac muscle mitochondria, GSH, ischemic or reperfused area / Glutathione content of cardiac muscle mitochondria, GSSG, ischemic or reperfused area: 10 mg/kg i.v. just before reperfusion; for Glutathione content of cardiac muscle mitochondria, GSH + GSSG, normal area / Glutathione content of cardiac muscle mitochondria, GSH, normal area / Glutathione content of cardiac muscle mitochondria, GSSG, normal area / Glutathione content of cardiac muscle mitochondria, GSH + GSSG, ischemic or reperfused area / Glutathione content of cardiac muscle mitochondria, GSH, ischemic or reperfused area / Glutathione content of cardiac muscle mitochondria, GSSG, ischemic or reperfused area: 2 h ischemia / 1 h reperfusion
Method: as §3, §4
Evaluation of ischemia-reperfusion injury was performed, following completion of ischemia-reperfusion, by measuring (1) glutathione content of mitochondria, and (2) mitochondrial function, and so on, at the ischemic or reperfused area and the normal area of the heart. Mitochondria was obtained by removing the heart immediately after the end of ischemia or reperfusion, washing with cold physiological saline, promptly cutting out the ischemic or reperfused area and the normal area, and immediately performing preparation from the respective area according to the method described by Hatefi, et al. in Arch. Biochem. Biophys., Vol. 94, pp. 148-155, 1961.
The glutathione content of the mitochondria was measured by applying the method described by Tietze in Anal. Biochem., Vol. 27, pp. 502-522, 1969 to the supernatant obtained by immediately adding 1/10 vol of 27.5% (w/v) sulfosalicylic acid dihydrate aqueous solution to the prepared mitochondria suspension followed by protein denaturation and centrifugation. Evaluation of mitochondrial function was performed according to the method described by Sugiyama, et al. in Am. Heart J., Vol. 100, pp. 829-837, 1980, by polarographically measuring respiratory ability using an oxygen electrode and determining the rate of oxygen consumption is state III (St. III O2) and the respiratory control index (RCI).

[5] = test system: liver ischemia-reperfusion model using rats; assay: Liver lipid peroxide concentration (thiobarbiturate method); conditions: rat; 50 mg/kg i.v.; after 1 hour reperfusion
Method: Male Wister rats weighing 250-300 g were fasted with free access to water 24 hours before the experiment. Seventy-two rats were divided into three groups of 24 animals each, i.e., the control group, the GSH administration group and the γ-GCE-administration group. Each rat was anesthetized by intraperitoneal administration of 40 mg/0.8 ml/kg of sodium pentobarbital, and the femoral vein was cannulated. In the GSH group and the γ-GCE group, 50 mg/kg of GSH or γ-GCE respectively were administered intravenously. Physiological saline was then infused for volume replacement in each group, as a continuous intravenous infusion at a rate of 0.8 ml/hr with an injection pump throughout the experiment. Thirty minutes after starting injection of physiological saline, the abdomon was opened by a midline incision and the liver hilus was exposed. […]
Evaluation of ischemia-reperfusion injury was performed by measuring liver tissue (1) mitochondrial function, (2) glutathione concentration, (3) adenine nucleotides concentration, and (4) lipid peroxide concentration, as well as liver tissue derived (5) adenine nucleotides concentration in the hepatic vein immediately after starting reperfusion, and (6) liver cell enzyme activities in the blood after 1 hour of reperfusion. More specifically, the mitochondrial function in (1) was measured according to the method described by Chance, et al. in Adv. […]

| Structure (SMILES) | Serum ALT after 1 hour of reperfusion [1] [IU/L] | Serum AST after 1 hour of reperfusion [1] [IU/L] | Serum LDH after 1 hour of reperfusion [1] [IU/L] | effect on leakage of liver cell enzymes into the blood following 1 hour of reperfusion [1] | Number of Ventricular Premature Beats, 1 Hour of Reperfusion [2] | Total Duration of Ventricular Tachycardia, 1 Hour of Reperfusion [2] [s] | effect on total duration of ventricular tachycardia during reperfusion [2] | occurrence of arrhythmia (ventricular premature beats) during reperfusion [2] | Number of Ventricular Premature Beats, 2 Hours of Ischemia [2] | Total Duration of Ventricular Tachycardia, 2 Hours of Ischemia [2] [s] | Adenine nucleotides concentration in hepatic vein immediately after starting reperfusion [3] [μmol/L serum] | effect on reduction of mitochondrial glutathione during reperfusion [4] | Glutathione content of cardiac muscle mitochondria, GSH + GSSG, normal area [4] | Glutathione content of cardiac muscle mitochondria, GSH, normal area [4] | Glutathione content of cardiac muscle mitochondria, GSSG, normal area [4] | Glutathione content of cardiac muscle mitochondria, GSH + GSSG, ischemic or reperfused area [4] | Glutathione content of cardiac muscle mitochondria, GSH, ischemic or reperfused area [4] | Glutathione content of cardiac muscle mitochondria, GSSG, ischemic or reperfused area [4] | Concentration of liver lipid peroxide following reperfusion [5] [nmol/mg protein] | further results |
| --- | --- | --- | --- | --- | --- | --- | --- | --- | --- | --- | --- | --- | --- | --- | --- | --- | --- | --- | --- | --- |
| CCOC(=O)[C@H](CS)NC(=O)CC[C@H](N)C(=O)O [γ-GCE, γ-L-glutamyl-L-cysteine ethyl ester] | 924 ± 330 | 2071 ± 625 | 14678 ± 2763 | significantly reduced leakage of enzymes from liver cells | 32 ± 30 | 3 ± 5 | remarkably suppressed its increase during reperfusion | strikingly suppressed | 40 ± 51 | 1 ± 2 | 1.96 ± 0.80 | significantly suppress further reduction of glutathione during the reperfusion | 4.06 ± 0.52 | 3.68 ± 0.54 | 0.38 ± 0.09 | 3.57 ± 0.46 | 3.12 ± 0.40 | 0.45 ± 0.15 | 6.56±0.6 | reduction of leakage of adenine nucleotides into the hepatic vein immediately after starting reperfusion [3]: over 50%; mitochondrial glutathione levels (GSH, GSH+GSSG) of reperfused area relative to normal area after reperfusion ([4]; 10 mg/kg just before reperfusion): 85-88% |
| N[C@@H](CCC(=O)N[C@@H](CS)C(=O)NCC(=O)O)C(=O)O [GSH, reduced glutathione, reference compound] | 2337 ± 571 | 3914 ± 1102 | 26435 ± 12191 | did not significantly mitigate the leakage | 1731 ± 1574 | 983 ± 959 | did not show such effect whatsoever | not suppressed at all | 42 ± 43 | 1 ± 2 | 3.59 ± 1.28 | no such effects were observed | 3.94 ± 0.33 | 3.67 ± 0.37 | 0.27 ± 0.08 | 2.44 ± 0.57 | 2.17 ± 0.52 | 0.27 ± 0.09 | 9.1±2.0 | effect on leakage of adenine nucleotides into the hepatic vein [3]: did not significantly mitigate the leakage |
